The target in one assay is T1, NUPR1 (Homo sapiens, UniProt O60356).
T1 construct: made in house
T1 sequence (O60356 1-82): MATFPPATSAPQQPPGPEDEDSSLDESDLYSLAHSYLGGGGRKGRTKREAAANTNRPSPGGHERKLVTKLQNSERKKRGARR
In words: Isothermal titration calorimetry (ITC) binding to NUPR1. The following applies: 25 °C; for N (stoichiometry) / ΔG / ΔH / −TΔS: pH 7.0; for Ka / Kd: sodium phosphate 20 mM, pH 7.0, 2% DMSO; for Kd: read-out: Kd (=1/Ka). The procedure:
The binding of the ZZW-115-derived compounds to NUPR1 was determined as described by using a high sensitivity isothermal titration calorimeter Auto-iTC200 (MicroCal, Malvern-Panalytical, Malvern, UK). Protein samples and solutions were properly degassed. Experiments were performed with freshly prepared protein solutions at 25 °C. A solution of NUPR1 (20 μM, in sodium phosphate 20 mM, pH 7.0, 2% DMSO) in the calorimetric cell was titrated with a solution of each compound (200 μM, in sodium phosphate 20 mM pH 7.0, 2% DMSO). The inhibitors were dissolved in the same buffer used for the protein. A standard protocol was employed: 19 titrant injections with 2 μL compound solution were programmed with a time spacing of 150 s, a stirring speed of 750 rpm, and a reference power of 10 μcal/s. The heat evolved after each ligand injection was calculated from the integral of the calorimetric signal. The heat due to the binding reaction was obtained as the difference between the reaction heat and the corresponding heat of injection, the latter estimated as a constant value throughout the experiment, and included as an adjustable parameter in the analysis. Control experiments (with the compounds injected into the buffer) were performed under the same experimental conditions.
The association constant (Ka), the enthalpy change (ΔH) and the stoichiometry (n) of the binding reaction were obtained through nonlinear regression analysis of experimental data to a model assuming a single ligand binding site for the protein. Experiments were performed in replicate and data were analyzed using in-house-developed software implemented in Origin 7 (OriginLab).
The interaction between ZZW-115-Derived compounds and NUPR1 was studied by using ITC, the gold-standard technique in binding-affinity determination, to test our theoretical prediction. […] From the thermogram (thermal power as a function of time), the binding isotherm (ligand-normalized heat as a function of the molar ratio) was obtained through integration of the individual heat effect associated with injection of each ligand solution (Figure 3). We used a nonlinear least-squares regression analysis employing a model that considered a single binding site in NUPR1 to estimate binding parameters such as the dissociation constant and the binding enthalpy.

The subject of the next assay is PDAC001T cells. In words: Cell viability assay (PrestoBlue). The format is cell-based. Particulars: Homo sapiens; PDAC001T (basal subtype), 72 h. The source says:
(§1) Primary pancreatic cancer cells PDAC001T, PDAC012T, PDAC021T, PDAC081T, PDAC082T, PDAC087T, PDAC088T, PDAC089T, and PDAC115T were obtained from the PaCaOmics clinical trial registered at www.clinicaltrials.gov (accessed on 2 October 2021) with registration number NCT01692873. We included PDAC samples from both echoendoscopic ultrasound-guided fine-needle (EUS-FNA) biopsies for patients with unresectable tumors and from surgical specimens for patients undergoing surgery. The tumor samples of these patients were used to generate patient-derived xenograft in nude mice as previously reported. Xenografts obtained from mice were split into several small pieces and used for cell culture in a biosafety chamber: after fine mincing, they were treated with collagenase type V (ref C9263; Sigma-Aldrich, St. Louis, MO, USA) and trypsin/EDTA (ref 25200-056; Gibco, Life Technologies, Grand Island, NY, USA) and were suspended in Dulbecco’s modified Eagle’s medium supplemented with 1% w/w penicillin/streptomycin (Gibco, Life Technologies, Paisley, UK) and 10% fetal bovine serum (Lonza Inc., Walkersville, MD, USA). After centrifugation, cells were resuspended in serum-free ductal media adapted from Schreiber et al. at 37 °C in a 5% CO2 incubator. Amplified cells were stored in liquid nitrogen as previously reported. Cells were weaned from antibiotics for ≥48 h before testing.
(§2) Cell viability was evaluated in ten pancreatic cancer cell lines, including MiaPaCa-2, and nine primary pancreatic cancer-derived cell lines: PDAC001T, PDAC012T, PDAC021T, PDAC081T, PDAC082T, PDAC087T, PDAC088T, PDAC089T, and PDAC115T. MiaPaCa-2 cells were obtained from ATCC (Manassas, VA, USA) and maintained in DMEM (Invitrogen, Cergy-Pontoise, France), supplemented with 10% […] at 37 °C with 5% CO2. The primary pancreatic cancer-derived cells were cultured in serum free ductal media (SFDM) following a procedure adapted from those previously described, without antibiotic, and incubated at 37 °C in a 5% CO2 incubator. Cells were plated in 96-well plates (5000 cells/well) overnight. Then, the media were supplemented with the compounds to be tested at 0–100 µM concentration, and the samples were incubated for another additional 72 h before performing the measurement. Cell viability was estimated after addition of PrestoBlue™ reagent (Life Technologies, Paris, France) for 3 h according to the PrestoBlue™ cell viability reagent protocol provided by the supplier. Cell viability was normalized when comparing to untreated cell rates. Experiments were performed in triplicate and each set was repeated three times, with similar results.

The next assay relates to PDAC012T cells. The assay can be described thus: Cell viability assay (PrestoBlue). Particulars: Homo sapiens; PDAC012T (classical subtype), 72 h. The format is cell-based.
Text: as §1, §2

The test system of another assay is PDAC021T cells. In words: Cell viability assay (PrestoBlue). In kind it is cell-based. Particulars: Homo sapiens; PDAC021T (basal subtype), 72 h.
Text: as §1, §2

A further assay has as its system PDAC081T cells. In words: Cell viability assay (PrestoBlue). The format is cell-based. The following applies: Homo sapiens; PDAC081T (classical subtype), 72 h.
Text: as §1, §2

A further assay deals with PDAC082T cells. The assay can be described thus: Cell viability assay (PrestoBlue). In kind it is cell-based. The following applies: Homo sapiens; PDAC082T (classical subtype), 72 h.
Text: as §1, §2

A further assay concerns PDAC087T cells. In words: Cell viability assay (PrestoBlue). The format is cell-based. Particulars: Homo sapiens; PDAC087T (basal subtype), 72 h.
Text: as §1, §2

The test system of another assay is PDAC088T cells. In words: Cell viability assay (PrestoBlue). The format is cell-based. The following applies: Homo sapiens; PDAC088T (classical subtype), 72 h.
Text: as §1, §2

A further assay deals with PDAC089T cells. The assay can be described thus: Cell viability assay (PrestoBlue). In kind it is cell-based. Particulars: Homo sapiens; PDAC089T (derived from a liver metastasis), 72 h.
Text: as §1, §2

The test system of the next assay is PDAC115T cells. In words: Cell viability assay (PrestoBlue). In kind it is cell-based. Particulars: Homo sapiens; PDAC115T (basal subtype), 72 h.
Text: as §1, §2

A further assay has as its system MiaPaCa-2 cells. The assay can be described thus: Cell viability assay (PrestoBlue). In kind it is cell-based, human. Particulars: MiaPaCa-2, 72 h. The procedure:
as §2

The test system of assay [1] is NUPR1 nuclear translocation. In words: NUPR1 nuclear translocation, immunofluorescence in MiaPaCa-2 cells. The format is cell-based, human. Particulars: 3 µM, 6 h (Figure 4). The procedure: Cells (100000 cells/well) were seeded in 12-well plates on coverslips overnight and then treated with 3 μM concentration of each compound for […]. After fixation with 4% paraformaldehyde (Sigma-Aldrich, St. Quentin, Fallavier, France) for 15 min, cells were washed twice with 1x PBS and incubated 1 h with the following antibodies at 1:200 dilution: rabbit anti-NUPR1 primary antibody (homemade) or γH2AX primary antibody (ab26350, Abcam, Paris, France). After the washing steps, samples were incubated 1 h with secondary antibodies at 1:500 dilution (goat anti-rabbit Alexa Fluor 488, A27034, or goat anti-mouse Alexa Fluor 488, A28175, both from Thermo Fisher Scientific, Franklin, MA, USA). ProLong™ Gold Antifade Mountant with DAPI (P36931, Thermo Fisher Scientific) was used to stain the nucleus and seal the samples. Image acquisition of Alexa Fluor 488-derived fluorescence and DAPI staining was detected with an LSM 880 controlled by Zeiss Zen Black 63x lens. Co-localization analysis and measurements in both channels were performed by using the ImageJ Coloc 2 plugin (version 3.0.5).
MiaPaCa-2 cells were treated with representative ZZW-115-derived compounds (3 µM) for 6 h. […] DAPI staining was used to detect cell nuclei, and it was combined with the Alexa 488 fluorescence in the merged panel. […]

Molecules are shown by their SMILES. Values joined by “and” are separate entries in the source; they are usually repeats but may differ in a detail not shown here. Identical values can stand only once.

`FC(F)(F)c1ccc2c(c1)N(CCCN1CCN(CCN3CCOCC3)CC1)c1ccccc1S2` [ZZW-132]: on NUPR1, the “N (stoichiometry)” value is 1.2 ± 0.1. Besides, on NUPR1, the ΔG was −7.9 ± 0.1 kcal mol^–1. The same compound registered a ΔH at NUPR1 of 0.3 ± 0.3 kcal mol^–1. The “−TΔS” value at NUPR1 was −8.2 ± 0.3 kcal mol^–1. In addition, at NUPR1, the Ka was 5.8 ± 0.4 M^–1 × 10^5. For the same compound, the Kd at NUPR1 was ~1.7 µM and 1.7 µM. In addition, the IC50 turned out to be 12.5 µM with PDAC001T cells; 12.2 µM in the assay with PDAC012T cells; 16.5 µM in the assay on PDAC021T cells; 1.91 µM in the assay with PDAC081T cells; 21.1 µM with PDAC082T cells; 16.6 µM with PDAC087T cells. Also, the IC50 in the assay with PDAC088T cells was 23.6 µM; in the assay on PDAC089T cells, 29.1 µM; in the assay with PDAC115T cells, 16.1 µM; with MiaPaCa-2 cells (Homo sapiens, MIA PaCa-2, 72 h), about 1 µM; in the assay on MiaPaCa-2 cells it was 1.04 µM. In assay [1], the “ability to hamper NUPR1 nuclear translocation” value is on record as “worst effect in hampering the nuclear translocation efficiency”.

On to `CN(C)CCCN1CCN(CCCN2c3ccccc3Sc3ccc(C(F)(F)F)cc32)CC1` [ZZW-142], for which the “N (stoichiometry)” value at NUPR1 is 1.3 ± 0.1. The ΔG at NUPR1 was −7.8 ± 0.1 kcal mol^–1. At NUPR1, this compound gave a ΔH of 0.3 ± 0.3 kcal mol^–1. Besides, the “−TΔS” value at NUPR1 was −8.1 ± 0.3 kcal mol^–1. Moreover, at NUPR1, the Ka worked out at 4.9 ± 0.3 M^–1 × 10^5. Also, the Kd on NUPR1 stood at 2 ± 0.2 µM. In addition, the half-inhibitory concentration (IC50) with PDAC001T cells was 11.9 µM; in the assay with PDAC012T cells it was 12.8 µM; in the assay on PDAC021T cells, 17 µM; in the assay on PDAC081T cells it was 2.27 µM; in the assay on PDAC082T cells, 23 µM; in the assay with PDAC087T cells it was 16.6 µM. Moreover, the IC50 is 23.9 µM with PDAC088T cells; 22.5 µM in the assay with PDAC089T cells; 14.7 µM in the assay on PDAC115T cells; about 1 µM in the assay with MiaPaCa-2 cells (Homo sapiens, MIA PaCa-2, 72 h); 0.95 µM in the assay on MiaPaCa-2 cells. Moreover, the “ability to hamper NUPR1 nuclear translocation” value in assay [1] was “worst effect in hampering the nuclear translocation efficiency”.

As usually defined, the IC50 is the concentration needed to halve the response being measured.

Source of the values: article PMC8533202, “Design of Inhibitors of the Intrinsically Disordered Protein NUPR1: Balance between Drug Affinity and Target Function” (Biomolecules, 2021).
